Experimental data from ChEMBL document CHEMBL1201862, “PubChem BioAssay data set” (2004).
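1) Cells in 96-well plates. 2) Compound, 48 h, 5 concentrations. 3) Linear interpolation between surrounding doses. 4) Unreached endpoint = highest concentration. GI50 is the concentration that inhibits growth by half.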 Calls of active or inactive are those of the source. Cut-off read from the data, not from the text of the source: active = GI50 up to about 1.1 µM and inactive = higher.

What was measured:
Assay in all cases: inhibition of tumour cell growth, NCI panel, 48 h
SNB-78 = tested on: SNB-78
DLD-1 = tested on: DLD-1
LXFL 529 = tested on: LXFL 529
XF498 = tested on: XF498
HOP-18 = tested on: HOP-18
KM-20L2 = tested on: KM-20L2
RXF 631 = tested on: RXF 631
DMS-273 = tested on: DMS-273
BT-549 = tested on: BT-549

Measured: GI50

Cc1ccc(C2=C(c3ccccc3)C(=O)C(c3ccccc3)=C2c2ccc(C)cc2)cc1
inactive: SNB-78 31.6 µM | DLD-1 41.2 µM | LXFL 529 68.7 µM | XF498 35.3 µM | HOP-18 > 100 µM | KM-20L2 45.8 µM

CC(C)=Cc1cc(C(=O)NCCNC(=O)c2cc(C=C(C)C)nc(NC#N)n2)nc(NC#N)n1
inactive: LXFL 529 > 100 µM | XF498 > 100 µM | HOP-18 > 100 µM | KM-20L2 > 100 µM

CCOC(=O)NC(=O)c1cn(CCN2CCN(C(=O)CCCCCCCCCCNc3ncnc4c3ncn4C3OC(CO)C(O)C3O)CC2)c(=O)[nH]c1=O (stereo not drawn)
inactive: SNB-78 > 100 µM | RXF 631 > 100 µM | DLD-1 > 100 µM | LXFL 529 > 100 µM | XF498 > 100 µM | KM-20L2 > 100 µM

CC(=O)C1=CSC2[C@H](NC(=O)Cc3ccccc3)C(=O)N2C1C(=O)OC(c1ccccc1)c1ccccc1 (stereo partly drawn)
inactive: SNB-78 > 100 µM | RXF 631 > 100 µM | DLD-1 > 100 µM | LXFL 529 > 100 µM | XF498 > 100 µM | DMS-273 67.9 µM

COc1ccc([C@@H]2CC(=O)N2)cc1
inactive: SNB-78 > 100 µM | DLD-1 > 100 µM | LXFL 529 > 100 µM | XF498 > 100 µM | DMS-273 > 100 µM | HOP-18 > 100 µM | KM-20L2 > 100 µM

CCOC(=O)C(/C(=N/NC(=O)OC)C(=O)Nc1ccc(C(C)=O)cc1)c1cnc2ccccc2n1 (stereo not drawn)
inactive: SNB-78 > 100 µM | RXF 631 > 100 µM | DLD-1 > 100 µM | LXFL 529 > 100 µM | XF498 > 100 µM | HOP-18 > 100 µM | KM-20L2 > 100 µM

COc1ccc(/C=N\O[Si](C)(C)C(C)(C)C)cc1O[Si](C)(C)C(C)(C)C
inactive: SNB-78 19.3 µM | RXF 631 21.1 µM | DLD-1 17.9 µM | LXFL 529 16.1 µM | XF498 18.4 µM | DMS-273 19.3 µM | HOP-18 15.3 µM | KM-20L2 28.8 µM

CC(C)=CC(=O)Cc1nc2cc(C)c(C)cc2[nH]c1=O
inactive: SNB-78 > 100 µM | RXF 631 > 100 µM | DLD-1 > 100 µM | LXFL 529 > 100 µM | DMS-273 > 100 µM | HOP-18 > 100 µM | KM-20L2 > 100 µM

O=C(CCc1n[nH]c(=S)o1)Nc1ccccc1C(F)(F)F
inactive: SNB-78 > 100 µM | RXF 631 > 100 µM | DLD-1 > 100 µM | LXFL 529 > 100 µM | DMS-273 > 100 µM | HOP-18 > 100 µM | KM-20L2 > 100 µM

COc1cc(C(=O)Nc2cccc3ccccc23)c(Br)c(OC)c1OC
inactive: RXF 631 > 100 µM | DLD-1 > 100 µM | LXFL 529 31.1 µM | HOP-18 4.33 µM | KM-20L2 > 100 µM

CC(=O)NNc1nc(C)c(C(/C=C/c2ccc(Cl)cc2)=N/NC(=S)NN)s1
inactive: SNB-78 > 100 µM | RXF 631 > 100 µM | DLD-1 > 100 µM | LXFL 529 > 100 µM | XF498 > 100 µM | DMS-273 > 100 µM | HOP-18 > 100 µM | KM-20L2 > 100 µM

COC(=O)c1cc(C)c(C)c2c1NC(=O)CNC2=O
inactive: SNB-78 > 100 µM | DLD-1 > 100 µM | LXFL 529 > 100 µM | XF498 > 100 µM | DMS-273 > 100 µM | KM-20L2 > 100 µM

Sc1nnc(COc2ccc(Cl)cc2)[nH]1
inactive: SNB-78 > 100 µM | RXF 631 > 100 µM | DLD-1 > 100 µM | LXFL 529 > 100 µM | DMS-273 > 100 µM | KM-20L2 > 100 µM

Cn1c2c(c3ccccc31)CCN(CCCN1CCN(c3cccc(Cl)c3)CC1)C2=O
inactive: RXF 631 24.7 µM | DLD-1 23 µM | LXFL 529 16.2 µM | XF498 10.4 µM | DMS-273 24.1 µM | HOP-18 22.9 µM | KM-20L2 2.87 µM

O=c1c2cccc3cccc(c4n1CCCN=4)c32
inactive: SNB-78 > 100 µM | RXF 631 > 100 µM | DLD-1 > 100 µM | LXFL 529 > 100 µM | XF498 > 100 µM | DMS-273 > 100 µM | HOP-18 > 100 µM | KM-20L2 > 100 µM

CC1OC(=O)N(CCCC=C2SCCCS2)C1=O (stereo not drawn)
inactive: SNB-78 > 100 µM | LXFL 529 > 100 µM | XF498 > 100 µM | DMS-273 > 100 µM | HOP-18 > 100 µM | KM-20L2 > 100 µM

CN(C)/N=N/c1ccc(C(N)=O)cc1
inactive: SNB-78 > 100 µM | DLD-1 > 100 µM | LXFL 529 > 100 µM | XF498 > 100 µM | DMS-273 > 100 µM | HOP-18 > 100 µM | KM-20L2 > 100 µM

C=C(C)[C@@H]1CC=C(CO)CC1 [PERILLYL ALCOHOL]
inactive: BT-549 > 10 µM | SNB-78 200 µM | RXF 631 565 µM | DLD-1 220 µM | LXFL 529 668 µM | XF498 123 µM | KM-20L2 265 µM
